From PMC3409094 (Journal of medicinal chemistry, 2012)

Legend:
[1] = target: three MDR protease variants (M1-M3); assay: HIV-1 protease inhibition assay; format: biochemical; details: against all three MDR protease variants (M1-M3)
[2] = system: wild-type and drug-resistant HIV-1 strains; assay: Antiviral assays, all viruses tested summarised; format: cell-based
[3] = against all the viruses tested (wild-type and MDR HIV-1)

Row | SMILES | MDR Ki [1] | EC50 ([2]; Human immunodeficiency virus 1) [nM] | EC50 [2, 3]
1 | CC[C@H](C)CN(C[C@@H](O)[C@H](Cc1ccccc1)NC(=O)OC[C@@H]1CCC(=O)N1)S(=O)(=O)c1ccc2ncsc2c1 [14j, ((S)-5-oxopyrrolidin-2-yl)methyl ((2S,3R)-3-hydroxy-4-(N-((S)-2-methylbutyl)benzo[d]thiazole-6-sulfonamido)-1-phenylbutan-2-yl)carbamate] | excellent potencies in the low nM ranges | 15.5 to 35.6 | 
2 | CC[C@H](C)CN(C[C@@H](O)[C@H](Cc1ccccc1)NC(=O)OCCN1CCNC1=O)S(=O)(=O)c1ccc2ncsc2c1 [14g, 2-(2-oxoimidazolidin-1-yl)ethyl ((2S,3R)-3-hydroxy-4-(N-((S)-2-methylbutyl)benzo[d]thiazole-6-sulfonamido)-1-phenylbutan-2-yl)carbamate] |  |  | modest antiviral potency
3 | CC[C@H](C)CN(C[C@@H](O)[C@H](Cc1ccccc1)NC(=O)OC[C@@H]1CCC(=O)N1)S(=O)(=O)c1ccc(OC)cc1 [13j, ((S)-5-oxopyrrolidin-2-yl)methyl ((2S,3R)-3-hydroxy-4-(4-methoxy-N-((S)-2-methylbutyl)phenylsulfonamido)-1-phenylbutan-2-yl)carbamate] | excellent potencies in the low nM ranges |  | modest antiviral potency
4 | CC[C@H](C)CN(C[C@@H](O)[C@H](Cc1ccccc1)NC(=O)OCCNC(=O)C(Cl)Cl)S(=O)(=O)c1ccc(OC)cc1 [13c, 2-(2,2-dichloroacetamido)ethyl (2S,3R)-3-hydroxy-4-(4-methoxy-N-((S)-2-methylbutyl)phenylsulfonamido)-1-phenylbutan-2-ylcarbamate] | excellent potencies in the low nM ranges |  | 
5 | CC[C@H](C)CN(C[C@@H](O)[C@H](Cc1ccccc1)NC(=O)OC[C@@H](C)C(=O)OC)S(=O)(=O)c1ccc(OC)cc1 [13f, (R)-methyl 3-((((2S,3R)-3-hydroxy-4-(4-methoxy-N-((S)-2-methylbutyl)phenylsulfonamido)-1-phenylbutan-2-yl)carbamoyl)oxy)-2-methylpropanoate] | excellent potencies in the low nM ranges |  | modest antiviral potency
